By IC50 is commonly meant the concentration that gives 50% inhibition.

Data set [1] has as its target T1, serum RBP4 (Mus musculus (Mouse), UniProt Q00724). The data set is described as follows: Serum RBP4 in Abca4−/− mice after 8-week dosing in chow. As to conditions: 35 mg/kg daily oral in chow, 8 weeks. It is filed as in vivo. The method, then:
Effect of 7a on accumulation of N-retinylidene-N-retinylethanolamine (A2E) in Eyes of the Abca4^−/− Mice
Animal protocols were approved by the Institutional Animal Care and Use Committee of Columbia University and complied with guidelines set forth by The Association for Research in Vision and Ophthalmology. […] Abca4^−/− (knockout) and C57BL/6J (wild-type control) mice were raised under 12 h on-off cyclic lighting with an in-cage illuminance of 30-50 lux. For long-term oral dosing 7a was formulated into Purina 5035 rodent chow at Research Diets, Inc. (New Brunswick, NJ) to ensure consistent 35 mg/kg daily oral dosing. Animals were administered the AKR-XI-85-containing chow for 8 weeks. Blood samples were collected at baseline and at the end of the dosing period for serum RBP4 measurements. Whole blood was drawn into a centrifuge tube and was let clot at room temperature for 30 min followed by centrifugation at 2,000×g for 15 minutes at +4° C. to collect serum. Serum RBP4 was measured using the RBP4 (mouse/rat) dual ELISA kit (AdipoGen) following the manufacturer's instructions.
To assess pre-clinical efficacy of 7a in the mouse Abca4^−/− model, the compound was formulated into a standard mouse chow to provide the daily oral dosing of 35 mg/kg. Long-term 8-week dosing of the compound formulated into a chow was conducted in Abca4^−/− mice. […]

The target of a further data set is CYP2C9 (Homo sapiens (Human), UniProt P11712). The data set is described as follows: CYP inhibition, fluorescent, CYP2C9. In kind it is in vitro ADME. How it is done:
(§1) The compounds listed below were tested in various metabolic stability and CYP inhibition assays.

The next data set has as its target PPARγ (Homo sapiens (Human), UniProt P37231). The data set is described as follows: PPARγ agonist assay (HTRF, PPARγ-NCOR interaction). As to conditions: read-out: PPAR γ assay (HTRF) for agonists of this nuclear receptor - IC50. In kind it is biochemical. From the text: Significant safety issues are associated with the clinical use of PPARγ agonists (increased risk of death, myocardial infarction, stroke, congestive heart failure, hepatotoxicity, peripheral edema, weight gain and carcinogenicity^1-4). We wanted to characterize the compounds we identified in a pilot screen as potential PPARγ agonists. The PPARγ assay is based on agonist-sensitive interaction of the GST-tagged ligand-binding domain (LRD) of the nuclear receptor PPARγ with the biotinylated corepressor NCOR peptide (FIG. 8).
Assay reactions are performed in a final volume of 16 ul.
In well of the 384-well assay plate, mix 6 ul of PPARγ solution, 4 ul of NCOR2 solution and 4 μl of Rosi solution. Test compounds diluted from DMSO stocks to 4× assay concentration in 1×HTRF, 100 mM KF buffer may be dispensed to well instead of Rosi. Negative control wells contained DMSO solvent alone; positive control well contained […]. […] Two μl of detection mix was added per well. […] The plate was incubated for 16 hrs at 4° C.
HTRF signal was measured in the SpectraMax M5e Multimode Plate Reader (Molecular Device). Fluorescence was excited at 337 nm. […] The signal was expressed as the ratio of fluorescence intensity: Flu668/Flu620×10,000. […]
A general note: In TR-FRET formats the signal depends on donor and acceptor labels being close together.

The nature of data set [2]: Metabolic stability in liver microsomes (HLM). In kind it is in vitro ADME, human. How it is done:
as §1
(In general: Liver microsomes are vesicles of endoplasmic reticulum, rich in cytochrome P450 enzymes.)

Data set [3] addresses T1, serum RBP4. The data set is described as follows: Serum RBP4 reduction in Balb/c mice after a single oral administration. It is filed as in vivo. The method, then:
Pharmacodynamic Studies of 7a and 7p in Balb/c Mice Following a Single Oral Administration
Animal protocols were approved by the Institutional Animal Care and Use Committee of Columbia University and complied with guidelines set forth by The Association for Research in Vision and Ophthalmology. Compounds were prepared as a suspension in 0.9% NaCl, 2% Tween 80 for oral administration. Compounds were administered to Balb/c mice in a volume of 100 μL through oral gavage. The doses used were 15 mg/kg, 25 mg/kg and 35 mg/kg for 7a while two doses, 25 mg/kg and 35 mg/kg, were tested for DENG-31(FFB-0000082). Blood samples were collected at pre-dose and 1 hr, 2 hr, 4 hr, 6 hr, 8 hr, and 24 hr timepoints. Whole blood was drawn into a centrifuge tube and was let clot at room temperature for 30 min followed by centrifugation at 2,000×g for 15 minutes at +4° C. to collect serum. Serum RBP4 was measured using the RBP4 (mouse/rat) dual ELISA kit (AdipoGen) following the manufacturer's instructions.
In order to attain this objective, the effect of oral compound administration was studied in mice. Three doses of compound 7a and two doses of 7p were tested in Balb/c mice assay for reduction of serum RBP4.

The next data set addresses CYP3A4 (Homo sapiens (Human), UniProt P08684). The data set is described as follows: CYP inhibition, fluorescent, CYP3A4. It is filed as in vitro ADME. How it is done: as §1
Another data set deals with RBP4-TTR interaction (Homo sapiens (Human), UniProt P02753). The data set is described as follows: HTRF (TR-FRET) assay for antagonists of retinol-induced RBP4-TTR interaction. In kind it is biochemical. As to conditions: in the presence of 1 μM retinol. From the text: TR-FRET Assay for Retinol-Induced RBP4-TTR Interaction
Binding of a desired RBP4 antagonist displaces retinol and induces hindrance for RBP4-TTR interaction resulting in the decreased FRET signal (FIG. 7). Bacterially expressed MBP-RBP4 and untagged TTR were used in this assay. For the use in the TR-FRET assay, the maltose binding protein (MBP)-tagged human RBP4 fragment (amino acids 19-201) was expressed in the Gold(DE3)pLysS E. coli strain (Stratagene) using the pMAL-c4x vector. Following cell lysis, recombinant RBP4 was purified from the soluble fraction using the ACTA FPLC system (GE Healthcare) equipped with the 5-ml the MBP Trap HP column. Human untagged TTR was purchased from Calbiochem. Untagged TTR was labeled directly with Eu^3+ Cryptate-NHS using the HTRF Cryptate Labeling kit from CisBio following the manufacturer's recommendations. HTRF assay was performed in white low volume 384 well plates (Greiner-Bio) in a final assay volume of 16 μl per well. […] Titration of test compounds in this assay was conducted in the presence of 1 μM retinol. […] TR-FRET signal was measured in the SpectraMax M5e Multimode Plate Reader (Molecular Device). […] The TR-FRET signal was expressed as the ratio of fluorescence intensity: Flu665/Flu620×10,000.
The compounds listed below were tested in two in vitro assays, RBP4 binding (SPA) and retinol-dependent RBP4-TTR interaction (HTRF) (Table 1).

The target in a further data set is CYP2C19 (Homo sapiens (Human), UniProt P33261). As to the kind of experiment: CYP inhibition, fluorescent, CYP2C19. In kind it is in vitro ADME. The method, then:
as §1

Each structure is given as a SMILES string. Values joined by “and” are separate entries in the source; they are usually repeats but may differ in a detail not shown here. Identical values can stand only once.

Sequence of CYP3A4 (P08684 whole entry, species assumed): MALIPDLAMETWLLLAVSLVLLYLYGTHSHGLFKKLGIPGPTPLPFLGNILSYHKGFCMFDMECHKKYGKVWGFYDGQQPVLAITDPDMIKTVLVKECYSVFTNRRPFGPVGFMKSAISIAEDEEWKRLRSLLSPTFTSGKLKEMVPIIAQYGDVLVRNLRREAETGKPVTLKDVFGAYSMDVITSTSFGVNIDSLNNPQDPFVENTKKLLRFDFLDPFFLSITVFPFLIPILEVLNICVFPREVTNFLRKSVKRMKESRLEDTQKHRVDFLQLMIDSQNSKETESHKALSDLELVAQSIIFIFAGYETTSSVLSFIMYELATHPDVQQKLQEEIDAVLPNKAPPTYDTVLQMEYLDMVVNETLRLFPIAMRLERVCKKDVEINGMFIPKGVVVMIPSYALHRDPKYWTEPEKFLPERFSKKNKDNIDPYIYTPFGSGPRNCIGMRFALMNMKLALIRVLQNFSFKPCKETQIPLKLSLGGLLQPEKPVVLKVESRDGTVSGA
Sequence of CYP2C9 (P11712 whole entry, species assumed): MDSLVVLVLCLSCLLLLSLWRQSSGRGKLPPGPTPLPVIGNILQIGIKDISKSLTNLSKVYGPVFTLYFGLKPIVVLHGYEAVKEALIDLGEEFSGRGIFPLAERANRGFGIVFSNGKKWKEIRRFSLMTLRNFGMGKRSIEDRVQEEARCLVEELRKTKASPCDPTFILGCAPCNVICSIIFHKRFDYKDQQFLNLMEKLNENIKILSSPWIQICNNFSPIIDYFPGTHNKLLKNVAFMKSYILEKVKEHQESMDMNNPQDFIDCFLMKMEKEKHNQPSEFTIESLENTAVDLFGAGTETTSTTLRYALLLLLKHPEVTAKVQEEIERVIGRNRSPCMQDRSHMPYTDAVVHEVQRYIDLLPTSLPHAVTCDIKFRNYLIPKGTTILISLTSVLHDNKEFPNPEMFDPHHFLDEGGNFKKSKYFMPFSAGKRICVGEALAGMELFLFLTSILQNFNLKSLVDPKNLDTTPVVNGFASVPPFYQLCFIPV
Sequence of CYP2C19 (P33261 whole entry, species assumed): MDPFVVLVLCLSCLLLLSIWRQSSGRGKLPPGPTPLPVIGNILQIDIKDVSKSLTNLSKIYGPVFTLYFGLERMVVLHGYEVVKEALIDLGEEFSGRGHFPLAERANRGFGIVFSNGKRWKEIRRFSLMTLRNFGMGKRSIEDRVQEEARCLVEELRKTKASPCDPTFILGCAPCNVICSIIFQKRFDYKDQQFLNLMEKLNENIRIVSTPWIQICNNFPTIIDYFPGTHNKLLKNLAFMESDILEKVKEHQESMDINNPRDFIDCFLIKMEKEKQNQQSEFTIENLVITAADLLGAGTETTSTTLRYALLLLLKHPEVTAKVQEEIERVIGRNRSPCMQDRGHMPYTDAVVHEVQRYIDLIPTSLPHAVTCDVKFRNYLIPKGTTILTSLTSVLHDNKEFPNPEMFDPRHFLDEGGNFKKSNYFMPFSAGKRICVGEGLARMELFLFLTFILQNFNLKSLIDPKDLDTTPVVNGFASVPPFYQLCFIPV
Sequence of PPARγ (P37231 204-505): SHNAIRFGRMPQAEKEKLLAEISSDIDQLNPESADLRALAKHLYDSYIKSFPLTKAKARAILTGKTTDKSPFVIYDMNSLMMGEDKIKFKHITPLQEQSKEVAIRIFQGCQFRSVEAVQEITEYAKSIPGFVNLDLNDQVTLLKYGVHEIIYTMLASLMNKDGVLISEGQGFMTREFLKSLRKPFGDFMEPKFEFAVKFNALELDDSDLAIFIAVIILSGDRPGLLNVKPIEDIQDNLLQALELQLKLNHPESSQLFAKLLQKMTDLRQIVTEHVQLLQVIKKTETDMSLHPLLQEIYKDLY

On to `O=C(c1nc2ncccn2n1)N1C[C@H]2C[C@@H](c3ccccc3C(F)(F)F)C[C@H]2C1` [Compound 7a], for which, on serum RBP4 [1], the “serum RBP4 reduction at end of 8-week treatment” value is “Approximately 70%”. The IC50 is > 100000 nM at CYP2C9; > 100000 nM on PPARγ; > 100000 nM against CYP3A4; 209 nM and 194 nM and 240 nM at RBP4-TTR interaction; > 20000 nM on CYP2C19. Also, in data set [2], the “Metabolic stability in liver microsomes: % Remaining at 30 min, HLM” value came out at 85%. The “maximum serum RBP4 reduction” value at serum RBP4 [3] (single 15 mg/kg PO, at 4 hr) stood at 83%; at serum RBP4 [3] (single 25 mg/kg PO, at 6 hr timepoint) it was 86%; on serum RBP4 [3] (single 35 mg/kg PO, at 8 hr timepoint), 89%.

The record behind these values is patent US12168664B2, “Triazolopyrimidines, their preparation and use” (THE TRUSTEES OF COLUMBIA UNIVERSITY IN THE CITY OF NEW YORK, priority 2018, dated 2024).
